In patent publication US7776847B2, “Benzisothiazoles useful for treating or preventing HCV infection” (priority 2005, dated 2010) one finds IC50 data, which are given here for 42 compounds.

One experiment relates to HCV replicon. Nature of the experiment: HCV replicon luciferase reporter assay. In kind it is cell-based. The conditions noted are these: Hepatitis C virus, Table 5; read-out: IC50. The gist of the method: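 IC50 is the compound amount halving luciferase signal, measured after 24–48 h treatment at various concentrations. Cells carrying the HCV replicon were pre-incubated 24 h at 37° C, 5% CO2 after seeding at about 5,000–7,500 cells/well before dosing.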
(A replicon is a self-replicating genome or part of one, used to study replication in cells.)
For orientation: IC50 means the concentration that inhibits the measured activity by half. `COc1ccc(-c2cccc(C(=O)NCCCNc3nsc4ccccc34)n2)c(OC)c1` [Compound 438, N-(3-(benzo[d]isothiazol-3-ylamino)propyl)-6-(2,4-dimethoxyphenyl)picolinamide]: the 50% inhibitory concentration (IC50) is under 5 µM. As for `O=C(NCCCNc1nsc2ccccc12)c1cc2ccc([N+](=O)[O-])cc2o1` [Compound 439, N-(3-(benzo[d]isothiazol-3-ylamino)propyl)-6-nitrobenzofuran-2-carboxamide], the IC50 is under 5 µM.

`CS(=O)(=O)c1ccc(-c2cccc(C(=O)NCCCNc3nsc4ccccc34)n2)cc1` [Compound 440, N-(3-(benzo[d]isothiazol-3-ylamino)propyl)-6-(4-(methylsulfonyl)phenyl)picolinamide]: the IC50 was under 5 µM. On the same count and under the same terms, for `CC1=NN(c2ccc(C(=O)NCCNc3nsc4ccccc34)cc2)C(=O)C1` [Compound 441, N-(2-(benzo[d]isothiazol-3-ylamino)ethyl)-4-(3-methyl-5-oxo-4,5-dihydropyrazol-1-yl)benzamide] the value was over 5 µM; for `O=C(NCCCNc1nsc2ccccc12)c1ccc(Br)nc1` [Compound 443, N-(3-(benzo[d]isothiazol-3-ylamino)propyl)-6-bromonicotinamide], under 5 µM. On to `CN(C)CCCNc1cccc(C(=O)NCCCNc2nsc3ccccc23)n1` [Compound 447, N-(3-(benzo[d]isothiazol-3-ylamino)propyl)-6-(3-(dimethylamino)propylamino)picolinamide], for which the half-inhibitory concentration (IC50) is under 5 µM. On to `CCCCNc1cccc(C(=O)NCCCNc2nsc3ccccc23)n1` [Compound 448, N-(3-(benzo[d]isothiazol-3-ylamino)propyl)-6-(butylamino)picolinamide], for which the half-maximal inhibitory concentration (IC50) is over 5 µM. Still for that read-out and setting: in the case of `O=C(NCCCNc1nsc2ccccc12)c1ccc2[nH]cnc2c1` [Compound 449, N-(3-(benzo[d]isothiazol-3-ylamino)propyl)-1H-benzo[d]imidazole-5-carboxamide] it was over 5 µM; in that of `O=C(NCCCNc1nsc2ccccc12)c1ccc2[nH]ccc2c1` [Compound 450, N-(3-(benzo[d]isothiazol-3-ylamino)propyl)-1H-indole-5-carboxamide], under 5 µM; in that of `O=C(NCCCNc1nsc2ccccc12)c1ccc(O)nc1` [Compound 451, N-(3-(benzo[d]isothiazol-3-ylamino)propyl)-6-hydroxynicotinamide], over 5 µM. On the same count and under the same terms, in the case of `O=C(NCCCNc1nsc2ccccc12)c1cnc(O)c(Cl)c1` [Compound 452, N-(3-(benzo[d]isothiazol-3-ylamino)propyl)-5-chloro-6-hydroxynicotinamide] it was over 5 µM. For the compound `CCCCC(=O)Nc1ccc2oc(C(=O)NCCCNc3nsc4ccccc34)cc2c1` [Compound 453, N-(3-(benzo[d]isothiazol-3-ylamino)propyl)-5-pentanamidobenzofuran-2-carboxamide], the half-maximal inhibitory concentration (IC50) is under 5 µM. Same read-out and setting: in the case of `CCCC(=O)Nc1ccc2oc(C(=O)NCCCNc3nsc4ccccc34)cc2c1` [Compound 454, N-(3-(benzo[d]isothiazol-3-ylamino)propyl)-5-butyramidobenzofuran-2-carboxamide] it was under 5 µM; in that of `CCCNC(=O)Nc1ccc2oc(C(=O)NCCCNc3nsc4ccccc34)cc2c1` [Compound 455, N-(3-(benzo[d]isothiazol-3-ylamino)propyl)-5-(3-propylureido)benzofuran-2-carboxamide], under 5 µM. Regarding `CCCCC(=O)Nc1ccc2sc(C(=O)NCCCNc3nsc4ccccc34)cc2c1` [Compound 456, N-(3-(benzo[d]isothiazol-3-ylamino)propyl)-5-pentanamidobenzo[b]thiophene-2-carboxamide], the concentration for half-maximal inhibition (IC50) was under 5 µM. As to `CCCC(=O)Nc1ccc2sc(C(=O)NCCCNc3nsc4ccccc34)cc2c1` [Compound 457, N-(3-(benzo[d]isothiazol-3-ylamino)propyl)-5-butyramidobenzo[b]thiophene-2-carboxamide], the IC50 is under 5 µM. In the case of `CCCNC(=O)Nc1ccc2sc(C(=O)NCCCNc3nsc4ccccc34)cc2c1` [Compound 458, N-(3-(benzo[d]isothiazol-3-ylamino)propyl)-5-(3-propylureido)benzo[b]thiophene-2-carboxamide], the 50% inhibitory concentration (IC50) is over 5 µM. With `Nc1ccc2sc(C(=O)NCCCNc3nsc4ccccc34)cc2c1` [Compound 459, 5-amino-N-(3-(benzo[d]isothiazol-3-ylamino)propyl)benzo[b]thiophene-2-carboxamide], the half-inhibitory concentration (IC50) is under 5 µM. Still for that read-out and setting: for `COc1ccc(-c2ccc(CN(C)CCCNc3nsc4ccccc34)cc2)cc1` [Compound 490, N^1-(benzo[d]isothiazol-3-yl)-N^3-((4′-methoxybiphenyl-4-yl)methyl)-N^3-methylpropane-1,3-diamine] the value was under 5 µM; for `COc1ccc(-c2ccc(C(=O)NCCCNc3nsc4cccc(C(F)(F)F)c34)cc2)cc1` [Compound 500, 4′-methoxy-N-(3-(4-(trifluoromethyl)benzo[d]isothiazol-3-ylamino)propyl)biphenyl-4-carboxamide], over 5 µM; for `COc1ccc(CNS(=O)(=O)c2ccc3snc(NCCCNC(=O)c4ccc(-c5ccc(OC)cc5)cc4)c3c2)cc1` [Compound 515, 4′-methoxy-N-(3-(5-(N-(4-methoxybenzyl)sulfamoyl)benzo[d]isothiazol-3-ylamino)propyl)biphenyl-4-carboxamide], over 5 µM. The same measure, in the same setting: in the case of `O=C(NCCCNc1nsc2ncccc12)C1CCN(c2nccc(C(F)(F)F)n2)CC1` [Compound 533, N-(3-(isothiazolo[5,4-b]pyridin-3-ylamino)propyl)-1-(4-(trifluoromethyl)pyrimidin-2-yl)piperidine-4-carboxamide] it was under 5 µM; in that of `CC(C)(C)OC(=O)N[C@H](C(=O)NCCNc1nsc2ccccc12)c1ccccc1` [Entry 11, (S)-tert-Butyl 2-(2-(Benzo[d]isothiazol-3-ylamino)ethylamino)-2-oxo-1-phenylethylcarbamate], under 5 µM.

On to `O=C(c1ccccc1)c1cccnc1C(=O)NCCNc1nsc2ccccc12` [Entry 12, N-(2-(Benzo[d]isothiazol-3-ylamino)ethyl)-3-benzoylpicolinamide], for which the half-maximal inhibitory concentration (IC50) was under 5 µM.

Take `Cc1cccc(C(=O)NCCNc2nsc3ccccc23)n1` [Entry 13, N-(2-(Benzo[d]isothiazol-3-ylamino)ethyl)-6-methylpicolinamide]: the concentration for half-maximal inhibition (IC50) is over 5 µM. Still for that read-out and setting: in the case of `COc1ccc(C(=O)NCCNc2nsc3ccccc23)cc1` [Entry 14, N-(2-(Benzo[d]isothiazol-3-ylamino)ethyl)-4-methoxybenzamide] it was under 5 µM; in that of `CC(C)[C@H](NC(=O)OC(C)(C)C)C(=O)NCCNc1nsc2ccccc12` [Entry 18, (S)-tert-Butyl 1-(2-(Benzo[d]isothiazol-3-ylamino)ethylamino)-3-methyl-1-oxobutan-2-ylcarbamate], under 5 µM; in that of `O=C(NCCNc1nsc2ccccc12)c1ccccn1` [Entry 25, N-(2-(Benzo[d]isothiazol-3-ylamino)ethyl)picolinamide], under 5 µM.

`O=C(NCCNc1nsc2ccccc12)c1cccc(Br)n1` [Entry 27, N-(2-(Benzo[d]isothiazol-3-ylamino)ethyl)-6-bromopicolinamide]: the IC50 is over 5 µM.

For `O=C(NCCNc1nsc2ccccc12)c1cccc(Cl)c1` [Entry 33, N-(2-(Benzo[d]isothiazol-3-ylamino)ethyl)-3-chlorobenzamide], the IC50 was over 5 µM. Still for that read-out and setting: for `O=C(NCCNc1nsc2ccccc12)c1c(Cl)cccc1Cl` [Entry 41, N-(2-(Benzo[d]isothiazol-3-ylamino)ethyl)-2,6-dichlorobenzamide] the value was over 5 µM; for `O=C(CC1CC1)NCCNc1nsc2ccccc12` [Entry 71, N-(2-(Benzo[d]isothiazol-3-ylamino)ethyl)-2-cyclopropylacetamide], over 5 µM; for `O=C(NCCNc1nsc2ccccc12)C1CCCNC1` (stereo not drawn) [Entry 73, N-(2-(Benzo[d]isothiazol-3-ylamino)ethyl)piperidine-3-carboxamide], over 5 µM. On the same count and under the same terms, for `N[C@H](C(=O)NCCNc1nsc2ccccc12)c1ccccc1` [Entry 74, (S)-2-Amino-N-(2-(benzo[d]isothiazol-3-ylamino)ethyl)-2-phenylacetamide] the value was over 5 µM; for `CC(C)[C@H](N)C(=O)NCCNc1nsc2ccccc12` [Entry 75, (S)-2-Amino-N-(2-(benzo[d]isothiazol-3-ylamino)ethyl)-3-methylbutanamide], over 5 µM; for `Cc1cccnc1C(=O)NCCNc1nsc2ccccc12` [Entry 76, N-(2-(Benzo[d]isothiazol-3-ylamino)ethyl)-3-methylpicolinamide], under 5 µM. The same measure, in the same setting: in the case of `COC(=O)c1ccc(C(=O)NCCNc2nsc3ccccc23)nc1` [Entry 77, Methyl 6-(2-(Benzo[d]isothiazol-3-ylamino)ethylcarbamoyl)nicotinate] it was over 5 µM. As to `O=C(O)c1ccc(C(=O)NCCNc2nsc3ccccc23)nc1` [Entry 78, 6-(2-(Benzo[d]isothiazol-3-ylamino)ethylcarbamoyl)nicotinic Acid], the IC50 was over 5 µM.

Regarding `O=C(NCCNc1nsc2ccccc12)c1ccc2ccccc2n1` [Entry 79, N-(2-(Benzo[d]isothiazol-3-ylamino)ethyl)quinoline-2-carboxamide], the 50% inhibitory concentration (IC50) was over 5 µM.

The experiment is the same for the next values; noted with them: Table 5; read-out: IC50.
Consider `CC(C)(C)NS(=O)(=O)c1cccc2snc(NCCCN)c12` [Compound 506, 3-(3-aminopropylamino)-N-tert-butylbenzo[d]isothiazole-4-sulfonamide], for which the half-maximal inhibitory concentration (IC50) was over 5 µM. On the same count and under the same terms, for `CC(C)(C)NS(=O)(=O)c1cccc2c(NCCCN)nsc12` [Compound 507, 3-(3-aminopropylamino)-N-tert-butylbenzo[d]isothiazole-7-sulfonamide] the value was over 5 µM; for `CC(C)(C)NS(=O)(=O)c1ccc2c(NCCCN)nsc2c1` [Compound 508, 3-(3-aminopropylamino)-N-tert-butylbenzo[d]isothiazole-6-sulfonamide], over 5 µM.
